From ChEMBL document CHEMBL1137881, “Synthesis of acyloxymethyl ester prodrugs of the transferable protein farnesyl transferase substrate farnesyl methylenediphosphonate” (Bioorg Med Chem Lett, 2004)

Columns and labels:
Type in all cases: protein-complex assay
[1] = tested on: CC(C)=CCC/C(C)=C/CC/C(C)=C/COP(=O)(O)CP(=O)(O)O; test: (§1) Michaelis-Menten constant against Farnesyltransferase
[2] = tested on: CC(C)=CCC/C(C)=C/CC/C(C)=C/COP(=O)(O)OP(=O)(O)O; test: as §1
[3] = target: T1, Protein farnesyltransferase (Homo sapiens) (UniProt P49354+P49356); test: Ratio of Kcat to Km for farnesyltransferase
[4] = target: T1, Protein farnesyltransferase (Homo sapiens); test: Catalytic constant against Farnesyltransferase

| Compound | Km [1] [µM] | Km [2] [µM] | Ratio [3] [M⁻¹ s⁻¹] | K cat [4] [s⁻¹] |
| --- | --- | --- | --- | --- |
| Protein farnesyltransferase (Homo sapiens) (from UniProt P49354+P49356) | 0.18 | 0.04 | – | – |
| CC(C)=CCC/C(C)=C/CC/C(C)=C/COP(=O)(O)OP(=O)(O)O | – | – | 2e+06 | 0.09 |
| CC(C)=CCC/C(C)=C/CC/C(C)=C/COP(=O)(O)CP(=O)(O)O | – | – | 300000 | 0.06 |
